According to paper PMC3055912, “A Method for Structure–Activity Analysis of Quorum-Sensing Signaling Peptides from Naturally Transformable Streptococci” (Biological Procedures Online, 2009):
Peptide text beside a SMILES is read from it.

Key:
[1] = test system: nlmAB promoter (PnlmAB::lacZ) in comC mutant SMdC; assay: nlmAB-lacZ reporter β-gal activity, strain SMdC-PnlmAB; format: cell-based, Streptococcus mutans; conditions: for time for which the high level of β-gal activity is maintained / time of highest level of β-gal activity after addition of peptide: SMdC-PnlmAB, time-course experiment
Source text: (§1) To assay QS activation in response to addition of a peptide, we constructed two types of lacZ transcriptional reporter strains that represented two levels of QS-activated gene expression. The first was a lacZ reporter gene fused to the comDE promoter, which allowed monitoring of the activity of the comDE promoter in response to a test peptide. The second strain was a lacZ reporter gene fused to the promoter of nlmAB, the gene encoding a nonlantibiotic bacteriocin and its expression directly controlled by the ComE [6, 22]. This strain allowed assay of comDE-controlled bacteriocin production.
For the second reporter strain, we generated a chromosomal nlmAB–lacZ fusion strain by transforming a PnlmAB::lacZ fusion construct pOMZ47 [6] into both comC mutant SMdC and wild-type GS5. The resulting reporter strains were confirmed by PCR and sequencing of the fusion sites as described previously. The confirmed reporter strains were respectively named SMdC-PnlmAB (PnlmAB::lacZ, comC^-, Kan^r, Spec^r) and SMGS5-PnlmAB (PnlmAB::lacZ, Kan^r). The strain SMGS5-PnlmAB was used a positive control.
A lacZ reporter assay was performed to monitor quorum-sensing activation using the same method as described previously. The newly constructed lacZ reporter strains were used to assay and quantify β-galactosidase activity in response to test peptides. Aliquots of samples were taken to prepare cell lysates at different time points T0, T15, T30, T60, and T120 after addition of a test peptide. Protein concentrations of the supernatants were determined by Bio-Rad protein assay (Bio-Rad). Specific β-gal activities (A420 min^-1 mL^-1 mg^-1 protein) were calculated from triplicate samples from two independent experiments. The data from the β-gal activity experiments were then normalized against negative or background controls and plotted as percentages of maximal activation versus log peptide concentrations. The half maximal activation concentration (AC50) was determined from the sigmoidal dose–response curve using Prism 4 (Graphpad, San Diego, CA, USA).

[2] = test system: comDE promoter (PcomDE::lacZ) in comC mutant SMdC; conditions: SMdC-pYH2; cited from earlier work
Description: We also used this mutant (SMdC) as a host to generate two types of lacZ transcriptional reporter fusion strains to assay the promoter activity of QS-controlled target genes, comDE and nlmAB, in response to addition of CSP. The lacZ reporter strain, SMdC-pYH2 (PcomDE::lacZ, comC^-, Spec^r, Kan^r), along with its background control strain SMdC-pSL (comC^-, Spec^r, Kan^r) were then assayed for β-galactosidase activity.

[3] = test system: S. mutans comC mutant SMdC (indicator strain Streptococcus sanguinis SK108); assay: QS-controlled bacteriocin production, agar plate overlay assay; format: cell-based; conditions: for level of bacteriocins induced compared with wild-type GS5: comC mutant SMdC with peptide, inhibitory zone against S. sanguinis SK108, Figure 5
Description: The S. mutans comC mutant SMdC as well as its parent GS5 and wild-type strain UA159 (positive controls) were used to assay for bacteriocin production using a modified agar plate method. Briefly, an aliquot of mid-log phase cells of the S. mutans wild-type strains and mutant SMdC grown under a condition with or without use of CSP or a test peptide were stabbed onto THYE agar plates. The plates were incubated anaerobically at 37°C for 6 h before carefully overlaid with 100 μL of cell suspension (about 10^6 CFU/mL^-1) of an indicator strain Streptococcus sanguinis SK108. The plates were further incubated anaerobically at 37°C for 24 h before inspection of bacteriocin production. The S. mutans strains showing an inhibitory zone around the stabs were scored as positive for bacteriocin production. The plates were then photographed for records.

[4] = aqueous buffer 50 mM K2HPO4/KH2PO4 pH 7.0; NMR needs 1.0 to 10 mM peptide
Description: For NMR studies, buffers, co-solvents, and additives were hydrogen-free or deuterated. Samples could be dissolved in as little as 10 μL, but typically, spectrometers were designed for sample volumes of at least 500 μL. Due to the inherently low sensitivity, concentrations of peptides ranged from 1.0 to 10 mM [13].
In our study, synthetic peptides CSP (UA159sp) and TPC3 for CD and NMR were dissolved in 95/5/0%, 70/0/30%, 30/0/70%, or 0/0/100% aqueous buffer/D2O/TFE-d2, or 95/5 aqueous buffer/D2O with 300 mM DPC-d38 (98 atom %D), where TFE refers to trifluoroethanol and DPC-d38 refers to perdeuterated dodecylphosphocholine [10, 13]. The aqueous buffer used for sample preparation contained 50 mM K2HPO4/KH2PO4 at pH 7.0. The concentration of peptides for solutions containing 100% TFE-d2 or DPC-d38 was 2 and 5 mM.

[5] = test system: comDE promoter (PcomDE::lacZ) in comC mutant SMdC; assay: comDE-lacZ reporter β-gal activity, strain SMdC-pYH2; format: cell-based, Streptococcus mutans; conditions: background control SMdC-pSL showed no significant difference
Source text: as §1
For the first reporter strain, we simply transformed previously constructed vector pYH2 [10] into the comC mutant (SMdC) to generate SMdC-pYH2 (PcomDE::lacZ, comC^-, Spec^r, Kan^r). pYH2 was constructed in such a way that the comDE promoter was fused to a promoterless lacZ gene on the backbone of Streptococcus–Escherichia coli shuttle vector pSL. […] These strains were then assessed for lacZ reporter activity in response to addition of peptides.
A lacZ reporter assay was performed to monitor quorum-sensing activation using the same method as described previously. The newly constructed lacZ reporter strains were used to assay and quantify β-galactosidase activity in response to test peptides. […] Protein concentrations of the supernatants were determined by Bio-Rad protein assay (Bio-Rad). […]

[6] = biological target: quorum sensing (ComCDE signaling) in S. mutans lacZ reporter strains (Streptococcus mutans serotype c, UniProt Q8DS94); conditions: truncated peptides; cited from earlier work
Source text: Based on the three-dimensional structures of S. mutans wild-type signaling peptide UA159sp (CSP) and C-terminally truncated peptide TPC3 from mutant JH1005 defective in genetic competence, we designed and synthesized a series of truncated peptides and peptides with amino acid substitutions. […] The C-terminal structural motif consisting of a sequence of polar hydrophobic charged residues is crucial for activating the signal transduction pathway, while the core α-helical structure ext ...

[7] = test system: S. mutans comC mutant SMdC; assay: CSP-dependent transformation (genetic competence) assay; format: cell-based, Streptococcus mutans; conditions: data not shown
Source text: To determine if synthetic peptides activated quorum sensing for induction of genetic competence, we used the comC deletion mutant that was unable to produce, but still responded to CSP, to assay peptide-dependent genetic transformation using the method as described previously. A streptococcal suicide vector pVA-gtfA, which harbored a 2.4-kb fragment of the S. mutans gtfA gene and an erythromycin resistance marker, was used as transforming DNA. The wild-type GS5 was used as a positive control, while both ComC (SMdC) and ComE mutants (SMdE) were used as negative controls. The wild-type strain was grown on Todd–Hewitt yeast extract (THYE) medium, whereas the mutants were maintained on THYE plus spectinomycin. When culture reached to early mid-log phase (OD600 ≈ 0.25), an aliquot of CSP was added into the culture at a final concentration of 50 nM (AC50 ≈ 0.25 nM). […] Transformation frequency was expressed as percentage of transformants against total viable recipient cells per milliliter cell suspension. […]
7. All the plates are incubated at 37°C for 2 days before assessment of transformation frequency, which is expressed as percentages of transformants (erythromycin-resistant colonies) against total recipient cells per […] cell suspension. […]

Sequence of quorum sensing (ComCDE signaling) in S. mutans lacZ reporter strains (Q8DS94 entry or part of it): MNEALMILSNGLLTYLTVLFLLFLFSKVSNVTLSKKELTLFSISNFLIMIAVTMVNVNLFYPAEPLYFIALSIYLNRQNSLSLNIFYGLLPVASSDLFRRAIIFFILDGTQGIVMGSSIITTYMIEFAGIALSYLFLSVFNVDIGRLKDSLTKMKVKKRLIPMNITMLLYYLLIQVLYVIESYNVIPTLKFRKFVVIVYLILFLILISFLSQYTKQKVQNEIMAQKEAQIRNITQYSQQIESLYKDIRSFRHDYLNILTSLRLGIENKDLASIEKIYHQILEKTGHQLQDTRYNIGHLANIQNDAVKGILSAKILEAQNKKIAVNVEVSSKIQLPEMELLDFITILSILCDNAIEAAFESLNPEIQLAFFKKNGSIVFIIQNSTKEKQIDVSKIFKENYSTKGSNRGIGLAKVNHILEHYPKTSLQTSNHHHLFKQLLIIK

| Structure (SMILES) | time for which the high level of β-gal activity is maintained [1] | time of highest level of β-gal activity after addition of peptide [1] | level of bacteriocins induced compared with wild-type GS5 [3] | solubility in water for NMR [4] | agonist function, AC50 compared with CSP [6] | further results |
| --- | --- | --- | --- | --- | --- | --- |
| CC(C)C[C@H](NC(=O)[C@H](C)NC(=O)[C@H](CCC(N)=O)NC(=O)[C@@H](NC(=O)[C@H](Cc1ccccc1)NC(=O)[C@H](CO)NC(=O)[C@H](CCCNC(=N)N)NC(=O)[C@H](CC(N)=O)NC(=O)[C@H](Cc1ccccc1)NC(=O)[C@H](CC(C)C)NC(=O)[C@H](CCCNC(=N)N)NC(=O)[C@H](Cc1ccccc1)NC(=O)[C@H](Cc1ccccc1)NC(=O)[C@@H](NC(=O)[C@H](CO)NC(=O)[C@H](CC(C)C)NC(=O)[C@H](CO)NC(=O)CNC(=O)[C@@H](N)CO)[C@@H](C)O)[C@@H](C)O)C(=O)NCC(=O)N[C@@H](CCCCN)C(=O)O [CSP (UA159sp), reference compound] (H-SGSLSTFFRLFNRSFTQALGK-OH) | at least 2 h | around 90 min | induce the same level of bacteriocins as GS5 | not soluble enough for extensive NMR studies |  | time after addition at which expression of β-gal activity declined [2]: around 40 min; induction of β-gal activity upon addition of peptide [5]: induced to express predicted β-gal activity |
| CC(C)C[C@H](NC(=O)[C@H](C)NC(=O)[C@H](CCC(N)=O)NC(=O)[C@@H](NC(=O)[C@H](Cc1ccccc1)NC(=O)[C@H](CO)NC(=O)[C@H](CCCNC(=N)N)NC(=O)[C@H](CC(N)=O)NC(=O)[C@H](Cc1ccccc1)NC(=O)[C@H](CC(C)C)NC(=O)[C@H](CCCNC(=N)N)NC(=O)[C@H](Cc1ccccc1)NC(=O)[C@H](Cc1ccccc1)NC(=O)[C@@H](NC(=O)[C@H](CO)NC(=O)[C@H](CC(C)C)NC(=O)[C@@H](N)CO)[C@@H](C)O)[C@@H](C)O)C(=O)NCC(=O)N[C@@H](CCCCN)C(=O)O [TPN2] (H-SLSTFFRLFNRSFTQALGK-OH; N-terminus and C-terminus assumed) |  |  |  |  | functioned as agonists with AC50 values similar to CSP |  |
| CC(C)C[C@H](NC(=O)[C@H](C)NC(=O)[C@H](CCC(N)=O)NC(=O)[C@@H](NC(=O)[C@H](Cc1ccccc1)NC(=O)[C@H](CO)NC(=O)[C@H](Cc1ccccc1)NC(=O)[C@H](CC(N)=O)NC(=O)[C@H](Cc1ccccc1)NC(=O)[C@H](CC(C)C)NC(=O)[C@H](CCCNC(=N)N)NC(=O)[C@H](Cc1ccccc1)NC(=O)[C@H](Cc1ccccc1)NC(=O)[C@@H](NC(=O)[C@H](CO)NC(=O)[C@H](CC(C)C)NC(=O)[C@@H](N)CO)[C@@H](C)O)[C@@H](C)O)C(=O)NCC(=O)O [SPA-18] (H-SLSTFFRLFNFSFTQALG-OH; N-terminus and C-terminus assumed) | at least 2 h | around 90 min | induce the same level of bacteriocins as GS5 |  |  | replacement of CSP in inducing genetic competence [7]: could completely replace CSP (UA159sp); replacement of CSP in activating quorum sensing ([1]; β-gal activity of SMdC-PnlmAB, Figure 4): could completely replace CSP (UA159sp); replacement of CSP in inducing bacteriocin production ([3]; Figure 5): could completely replace CSP (UA159sp) |
| CC(C)C[C@H](NC(=O)[C@H](CCCNC(=N)N)NC(=O)[C@H](Cc1ccccc1)NC(=O)[C@H](Cc1ccccc1)NC(=O)[C@@H](NC(=O)[C@H](CO)NC(=O)[C@H](CC(C)C)NC(=O)[C@@H](NC(=O)CNC(=O)[C@@H](N)CO)[C@@H](C)O)[C@@H](C)O)C(=O)N[C@@H](Cc1ccccc1)C(=O)N[C@@H](CC(N)=O)C(=O)N[C@@H](CCCNC(=N)N)C(=O)N[C@@H](CO)C(=O)N[C@@H](Cc1ccccc1)C(=O)N[C@H](C(=O)N[C@@H](CCC(N)=O)C(=O)N[C@@H](C)C(=O)O)[C@@H](C)O [TPC3 (JH1005sp)] (H-SGTLSTFFRLFNRSFTQA-OH) |  |  |  | not soluble enough for extensive NMR studies |  |  |
| CC(C)C[C@H](NC(=O)[C@H](C)NC(=O)[C@H](CCC(N)=O)NC(=O)[C@@H](NC(=O)[C@H](Cc1ccccc1)NC(=O)[C@H](CO)NC(=O)[C@H](CCCNC(=N)N)NC(=O)[C@H](CC(N)=O)NC(=O)[C@H](Cc1ccccc1)NC(=O)[C@H](CC(C)C)NC(=O)[C@H](CCCNC(=N)N)NC(=O)[C@H](Cc1ccccc1)NC(=O)[C@H](Cc1ccccc1)NC(=O)[C@@H](NC(=O)[C@H](CO)NC(=O)[C@H](CC(C)C)NC(=O)[C@H](CO)NC(=O)CNC(=O)[C@@H](N)CO)[C@@H](C)O)[C@@H](C)O)C(=O)NCC(=O)O [TPC1] (H-SGSLSTFFRLFNRSFTQALG-OH; N-terminus and C-terminus assumed) |  |  |  |  | functioned as agonists with AC50 values similar to CSP |  |
